Measurements taken from patent US11925653B2, “Combination therapy effective against microorganisms, including drug resistant microorganisms” (Fleurir ABX LLC, priority 2021, dated 2024).

Tests used:
[1] = test system: H. influenzae; details: cited from earlier work
[2] = test system: E. faecalis; details: cited from earlier work
[3] = test system: bacteria; experiment: spontaneous mutational frequency (SMF; resistance); assay type: cell-based; details: resistant colonies observed divided by total inoculum; plates with 4-fold MIC of the combination or 2-fold MIC of each antibiotic alone
Experimental: MIC was further evaluated to confirm resistance, and the spontaneous mutational frequency was calculated based on the following equation: […]
The spontaneous mutational frequency (SMF; resistance) was calculated as the number of resistant colonies observed divided by the total inoculum.

[4] = representative pharmacokinetic parameters; assay type: in vivo; details: Dose: Fosfomycin 3000 mg, trimethoprim 720 mg
From the text: The therapeutically effective amount may be modified by pharmacokinetic, and pharmacodynamic analysis as is understood in the field. In some embodiments, the novel composition may be provided prophylactically or preventatively or protectively, which may, in some instances, be at or below a therapeutically effective amount.

Compound	MIC of co-trimoxazole, per component [1]	MIC of co-trimoxazole, per component [2]	frequency of spontaneous mutants resistant (spontaneous mutational frequency, SMF) [3]	kel (elimination rate constant) [4]	Tmax ([4]; sulfamethoxazole 3600 mg)
Cc1cc(NS(=O)(=O)c2ccc(N)cc2)no1 [sulfamethoxazole, N1-(5-methyl-3-isoxazolyl)sulfanilamide]	≤ 9.5 mg/L	38 mg/L	–	–	–
O=C1CN(/N=C/c2ccc([N+](=O)[O-])o2)C(=O)N1 [nitrofurantoin]	–	–	3.40×10^−8	–	–
COc1cc(Cc2cnc(N)nc2N)cc(OC)c1OC [trimethoprim, 2,4-diamino-5-(3,4,5-trimethoxybenzyl)pyrimidine]	0.5 mg/L	2 mg/L	–	0.08 h⁻¹	2 h
